# Results published in ChEMBL document CHEMBL1201862, “PubChem BioAssay data set” (2004).
# The source made the active and inactive calls.
# How the values were obtained:
# [1] = molecular target: T1, Fatty acid synthase (Homo sapiens, UniProt P49327); experiment: inhibition of human FAS-TE enzyme activity – biochemical, endpoint fluorescence intensity, uHTS hits, dose response (AID 624327); assay type: functional;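 further: fluorescence from hydrolysis of an O-methyl fluorescein acyl ester substrate by the enzyme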
# T1 sequence (P49327 whole entry): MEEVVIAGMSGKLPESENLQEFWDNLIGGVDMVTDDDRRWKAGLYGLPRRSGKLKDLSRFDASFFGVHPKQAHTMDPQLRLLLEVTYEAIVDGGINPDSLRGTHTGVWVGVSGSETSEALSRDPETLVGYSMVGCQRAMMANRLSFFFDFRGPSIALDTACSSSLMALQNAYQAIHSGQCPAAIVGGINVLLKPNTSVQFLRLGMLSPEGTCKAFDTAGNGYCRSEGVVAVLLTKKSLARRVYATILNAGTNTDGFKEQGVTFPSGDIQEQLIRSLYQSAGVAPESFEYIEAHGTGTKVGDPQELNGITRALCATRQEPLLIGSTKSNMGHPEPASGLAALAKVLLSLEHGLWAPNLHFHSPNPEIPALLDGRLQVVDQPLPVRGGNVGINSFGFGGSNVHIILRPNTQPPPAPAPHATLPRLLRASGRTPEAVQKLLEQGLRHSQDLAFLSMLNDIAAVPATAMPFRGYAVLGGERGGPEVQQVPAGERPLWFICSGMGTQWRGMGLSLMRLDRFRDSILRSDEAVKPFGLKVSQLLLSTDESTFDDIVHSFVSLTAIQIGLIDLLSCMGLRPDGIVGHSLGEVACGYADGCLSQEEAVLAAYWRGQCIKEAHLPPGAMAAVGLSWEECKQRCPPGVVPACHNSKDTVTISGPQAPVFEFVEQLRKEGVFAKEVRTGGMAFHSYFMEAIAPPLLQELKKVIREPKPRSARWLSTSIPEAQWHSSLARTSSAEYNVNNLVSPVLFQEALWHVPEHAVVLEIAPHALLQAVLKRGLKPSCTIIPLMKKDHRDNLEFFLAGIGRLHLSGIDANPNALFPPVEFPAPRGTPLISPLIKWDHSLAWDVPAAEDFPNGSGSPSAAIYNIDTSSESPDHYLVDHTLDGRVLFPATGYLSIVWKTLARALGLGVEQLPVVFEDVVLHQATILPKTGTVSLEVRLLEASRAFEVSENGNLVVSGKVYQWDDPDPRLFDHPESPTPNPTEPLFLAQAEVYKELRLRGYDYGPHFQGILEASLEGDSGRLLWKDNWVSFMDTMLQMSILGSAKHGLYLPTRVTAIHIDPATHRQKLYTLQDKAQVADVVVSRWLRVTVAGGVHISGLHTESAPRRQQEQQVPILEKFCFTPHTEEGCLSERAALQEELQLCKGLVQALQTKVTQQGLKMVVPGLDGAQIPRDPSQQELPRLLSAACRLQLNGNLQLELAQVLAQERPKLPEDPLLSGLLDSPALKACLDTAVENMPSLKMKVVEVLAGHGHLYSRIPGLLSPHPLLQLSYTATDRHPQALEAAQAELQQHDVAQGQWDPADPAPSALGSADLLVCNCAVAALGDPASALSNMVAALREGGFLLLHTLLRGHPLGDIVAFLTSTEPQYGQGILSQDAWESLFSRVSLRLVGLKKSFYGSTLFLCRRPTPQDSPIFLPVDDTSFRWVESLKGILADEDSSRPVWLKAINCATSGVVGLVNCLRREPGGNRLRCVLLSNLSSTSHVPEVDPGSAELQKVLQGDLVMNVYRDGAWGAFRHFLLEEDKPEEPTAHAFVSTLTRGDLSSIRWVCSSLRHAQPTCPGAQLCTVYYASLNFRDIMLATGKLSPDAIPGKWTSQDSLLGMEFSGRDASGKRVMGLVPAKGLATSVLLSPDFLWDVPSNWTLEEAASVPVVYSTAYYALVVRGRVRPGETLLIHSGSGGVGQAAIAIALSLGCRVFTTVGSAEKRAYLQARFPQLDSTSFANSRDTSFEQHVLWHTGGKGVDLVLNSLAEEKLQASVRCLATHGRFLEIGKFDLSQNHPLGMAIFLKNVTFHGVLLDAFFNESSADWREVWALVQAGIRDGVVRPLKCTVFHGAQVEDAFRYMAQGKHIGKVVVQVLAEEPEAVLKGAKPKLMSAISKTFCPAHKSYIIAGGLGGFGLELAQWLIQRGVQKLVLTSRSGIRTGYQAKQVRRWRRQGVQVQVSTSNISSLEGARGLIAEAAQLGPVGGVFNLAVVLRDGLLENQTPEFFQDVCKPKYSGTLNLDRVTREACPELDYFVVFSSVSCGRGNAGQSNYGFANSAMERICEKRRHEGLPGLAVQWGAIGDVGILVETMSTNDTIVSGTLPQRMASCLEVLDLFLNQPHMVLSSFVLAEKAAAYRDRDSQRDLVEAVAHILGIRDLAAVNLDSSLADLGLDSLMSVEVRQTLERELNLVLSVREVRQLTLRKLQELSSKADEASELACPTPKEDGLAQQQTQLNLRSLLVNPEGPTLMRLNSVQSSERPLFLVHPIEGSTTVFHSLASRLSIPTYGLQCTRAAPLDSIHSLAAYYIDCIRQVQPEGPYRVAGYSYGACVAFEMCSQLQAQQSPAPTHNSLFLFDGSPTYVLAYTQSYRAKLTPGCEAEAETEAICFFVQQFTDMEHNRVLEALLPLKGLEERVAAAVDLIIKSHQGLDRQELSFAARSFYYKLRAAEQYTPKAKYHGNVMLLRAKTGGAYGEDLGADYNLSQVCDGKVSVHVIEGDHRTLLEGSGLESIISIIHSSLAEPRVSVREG
# [2] = molecular target: T1, Fatty acid synthase; experiment: inhibition of human FAS-TE enzyme activity – biochemical, kinetic fluorescence intensity, dose response (AID 624326); assay type: functional;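 further: rate of fluorescence rise from hydrolysis of a fluorogenic O-methyl fluorescein ester substrate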
# [3] = tested on: HEK293; experiment: EBV LMP1 TES2 canonical NF-kB signalling blockers – cell-based, HEK293, luciferase, cherry-pick, dose response (AID 588343); assay type: functional; conditions: Homo sapiens
# [4] = molecular target: T2, Coagulation factor XII (Homo sapiens, UniProt P00748); assay type: functional;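 further: activated factor XIIa alpha cleaving a fluorogenic AMC peptide substrate; inhibitor potency from loss of enzyme activity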
# T2 sequence (P00748 whole entry): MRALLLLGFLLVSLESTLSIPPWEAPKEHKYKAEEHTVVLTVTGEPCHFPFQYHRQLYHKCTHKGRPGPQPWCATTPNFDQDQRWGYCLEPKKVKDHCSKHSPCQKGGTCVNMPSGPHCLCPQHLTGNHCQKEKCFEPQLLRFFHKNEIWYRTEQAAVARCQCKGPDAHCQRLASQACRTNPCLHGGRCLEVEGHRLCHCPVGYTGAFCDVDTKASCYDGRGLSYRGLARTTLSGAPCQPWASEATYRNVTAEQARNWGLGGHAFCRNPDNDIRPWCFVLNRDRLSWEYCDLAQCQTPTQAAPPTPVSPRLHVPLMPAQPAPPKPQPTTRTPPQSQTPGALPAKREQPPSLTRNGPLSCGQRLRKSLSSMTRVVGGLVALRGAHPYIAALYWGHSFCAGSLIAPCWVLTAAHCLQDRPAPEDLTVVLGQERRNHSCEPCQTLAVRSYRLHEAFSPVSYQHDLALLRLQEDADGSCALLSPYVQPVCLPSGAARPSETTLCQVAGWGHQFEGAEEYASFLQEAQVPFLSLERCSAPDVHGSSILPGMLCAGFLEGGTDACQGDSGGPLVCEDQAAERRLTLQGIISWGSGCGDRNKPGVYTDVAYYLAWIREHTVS
# [5] = molecular target: FAD-linked sulfhydryl oxidase ALR (Homo sapiens, UniProt P55789); experiment: ALR-catalysed DTT oxidation blockers – biochemical, H2O2 detection, luminescence, cherry-pick, dose response (AID 493248)
# FAD-linked sulfhydryl oxidase ALR, sequence (P55789 whole entry): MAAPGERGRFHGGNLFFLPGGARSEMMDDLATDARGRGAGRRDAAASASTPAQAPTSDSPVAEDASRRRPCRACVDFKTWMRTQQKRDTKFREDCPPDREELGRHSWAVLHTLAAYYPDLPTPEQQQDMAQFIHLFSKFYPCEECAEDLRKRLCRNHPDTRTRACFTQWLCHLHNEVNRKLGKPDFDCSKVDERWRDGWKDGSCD
# [6] = molecular target: T3, Ubiquitin-conjugating enzyme E2 N (Homo sapiens, UniProt P61088); assay type: functional;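 further: Dose-response confirmation in a TR-FRET assay detecting UBC13-driven polyubiquitin chain formation, inhibition measured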
# T3 sequence (P61088 whole entry): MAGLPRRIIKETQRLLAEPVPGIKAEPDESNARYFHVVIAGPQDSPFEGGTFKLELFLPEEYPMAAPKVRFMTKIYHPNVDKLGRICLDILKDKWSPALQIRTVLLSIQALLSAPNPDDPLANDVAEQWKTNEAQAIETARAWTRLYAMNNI
# [7] = tested on: H9c2; experiment: cells; assay type: functional, cell-based; conditions: Rattus norvegicus, H9c2, Myocardium;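 further: confirmatory concentration-response retest of ultra-high-throughput screening hits for modulation of myocardial damage; cell death induced by hydrogen peroxide oxidative stress; compound pretreatment for 60 min then peroxide exposure for 2 h; potency is for protecting the cells against peroxide damage rather than for killing them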
# [8] = molecular target: T4, Corticotropin-releasing factor receptor 2/Corticotropin-releasing factor-binding protein (Homo sapiens, UniProt P24387+Q13324); experiment: activators of CRF receptor 2 with binding protein – uHTS hits, confirmation (AID 602473); assay type: functional; conditions: read-out: EC50_Mean
# T4 sequence (Q13324 whole entry): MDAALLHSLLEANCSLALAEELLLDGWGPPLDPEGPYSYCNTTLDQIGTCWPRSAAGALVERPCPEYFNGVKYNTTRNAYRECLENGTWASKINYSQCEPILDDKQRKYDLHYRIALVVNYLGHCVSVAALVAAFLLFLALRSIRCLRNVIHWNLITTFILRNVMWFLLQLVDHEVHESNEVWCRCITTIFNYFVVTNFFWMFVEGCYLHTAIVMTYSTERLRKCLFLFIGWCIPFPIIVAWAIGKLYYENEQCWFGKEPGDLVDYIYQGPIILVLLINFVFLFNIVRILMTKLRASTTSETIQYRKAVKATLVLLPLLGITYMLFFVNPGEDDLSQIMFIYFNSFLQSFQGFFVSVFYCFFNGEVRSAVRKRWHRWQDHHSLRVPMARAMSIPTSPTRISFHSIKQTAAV
# T4 sequence (P24387 whole entry): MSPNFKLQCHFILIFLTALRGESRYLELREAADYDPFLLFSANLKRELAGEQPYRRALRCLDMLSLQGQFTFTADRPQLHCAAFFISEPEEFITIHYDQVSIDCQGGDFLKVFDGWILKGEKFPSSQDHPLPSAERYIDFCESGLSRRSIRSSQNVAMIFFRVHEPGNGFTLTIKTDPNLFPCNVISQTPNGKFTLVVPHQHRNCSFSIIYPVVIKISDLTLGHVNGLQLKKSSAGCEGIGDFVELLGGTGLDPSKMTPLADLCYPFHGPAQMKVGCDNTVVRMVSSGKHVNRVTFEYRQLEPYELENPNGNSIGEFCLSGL
# [9] = blockade of melanocortin 4 receptor signaling – cell-based, plate reader, cherry pick, counter-screen for LGR2 antagonist project, dose response (AID 743444); assay type: functional;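 further: transfected HEK 293 cells stimulated with alpha-MSH peptide; potency of inhibitors of the alpha-MSH evoked signal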
# [10] = blockers of bursicon-stimulated LGR2 cAMP reporter – cell-based, HEK293, CRE-luciferase reporter, cherry pick, set 2, dose response (AID 743343); assay type: functional;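 further: transfected cells were stimulated with diluted bursicon conditioned medium after compound addition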
# [11] = molecular target: Paired box protein Pax-8 (Homo sapiens, UniProt Q06710); experiment: PAX8 transcriptional activity inhibition in RMG-I – RMG-I cells, luciferase, cherry-pick, dose response (AID 687027); assay type: functional, cell-based;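 further: luciferase reporter driven by Pax8 target thyroperoxidase promoter measured by SteadyGlo luminescence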
# Paired box protein Pax-8, sequence (Q06710 whole entry): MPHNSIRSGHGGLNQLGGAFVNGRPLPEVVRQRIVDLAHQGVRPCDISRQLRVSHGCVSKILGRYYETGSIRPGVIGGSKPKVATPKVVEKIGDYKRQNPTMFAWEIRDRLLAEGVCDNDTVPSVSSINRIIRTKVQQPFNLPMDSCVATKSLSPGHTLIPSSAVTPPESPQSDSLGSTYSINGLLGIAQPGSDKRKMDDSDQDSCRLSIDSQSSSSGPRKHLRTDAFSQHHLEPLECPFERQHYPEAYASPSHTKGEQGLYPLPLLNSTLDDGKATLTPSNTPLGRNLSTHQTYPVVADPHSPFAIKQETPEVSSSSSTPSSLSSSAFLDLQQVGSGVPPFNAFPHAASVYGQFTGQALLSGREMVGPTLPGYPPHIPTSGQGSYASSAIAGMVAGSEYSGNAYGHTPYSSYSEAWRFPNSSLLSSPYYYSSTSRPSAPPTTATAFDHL
# [12] = OVCAR-3 cell viability loss – plate reader, dry powder samples, PAX8 inhibitor project, dose response (AID 743044); assay type: functional, cell-based
# [13] = molecular target: T5, Calpain-2 catalytic subunit (Sus scrofa, UniProt P43367); experiment: m-calpain protease blockers, concentration series – biochemical, fluorogenic peptide substrate, dose response (AID 1420); assay type: functional
# T5 sequence (P43367 whole entry): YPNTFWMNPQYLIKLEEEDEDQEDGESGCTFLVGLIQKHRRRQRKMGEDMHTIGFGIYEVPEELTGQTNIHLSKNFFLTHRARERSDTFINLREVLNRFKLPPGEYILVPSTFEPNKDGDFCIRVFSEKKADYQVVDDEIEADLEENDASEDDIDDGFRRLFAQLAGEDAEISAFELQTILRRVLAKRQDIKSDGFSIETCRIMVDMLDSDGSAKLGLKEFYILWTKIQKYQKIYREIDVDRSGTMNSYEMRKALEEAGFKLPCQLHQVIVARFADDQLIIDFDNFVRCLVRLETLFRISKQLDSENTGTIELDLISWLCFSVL
compound,measurement,setting,value
N#CC1(NC(=O)COC(=O)c2cc([N+](=O)[O-])ccc2N2CCOCC2)CCCCC1,IC50,[1],3.79 µM (active)
same,IC50,[2],2.59 µM (active)
Cc1ccnc(NC(=O)c2sc3ccccc3c2Cl)c1,AC50,[3],1.46 µM (active)
COc1ccc(N2CCCn3c2nc2c3c(=O)n(Cc3ccc(C)cc3)c(=O)n2C)c(OC)c1,IC50,[4],> 50 µM (inactive)
[O-][S+](NC1CCCCC1)C12CC3CC(CC(C3)C1)C2 (stereo not given),IC50,[4],> 50 µM (inactive)
O=C(Cn1nc(-c2ccco2)ccc1=O)Nc1ccc(Cl)c(Cl)c1,IC50,[1],13.1 µM (active)
same,IC50,[2],12.4 µM (active)
O=C(Oc1ccc2c(=O)c(Cl)coc2c1)c1ccncc1,IC50,[4],18 µM (active)
CC(C)(C)c1ccc(Oc2ccc(NC(=O)CCCC(=O)O)cn2)cc1,IC50,[4],> 50 µM (inactive)
same,AC50,[5],1.49 µM (active)
O=C(O)CCN1C(=O)C2C3c4ccccc4C(c4ccccc43)[C@@H]2C1=O (stereo not given in full),IC50,[4],> 50 µM (inactive)
C#CCOCCOCCOCCNc1nc(N2CCN(C(=O)[C@H](CCCN=C(N)N)n3cc(C(N)[C@@H](C)CC)nn3)CC2)nc(N2CCN(C(=O)[C@H](CCCCN)n3cc([C@@H](N)CC(N)=O)nn3)CC2)n1 (stereo not given in full),IC50,[6],> 20 µM (inactive)
CCOC(=O)C1CCN(C(=O)c2ccc3c(=O)n4nc(Nc5ccccc5OC)sc4nc3c2)CC1,IC50,[1],12.4 µM (active)
same,IC50,[2],11.8 µM (active)
same,IC50,[7],> 79 µM (inactive)
O=C(C[C@H]1C[C@H](C(=O)N2CCOCC2)[C@@]2(CCC3CCCC3)c3[nH]c4ccc(Cl)cc4c3CCN2C1=O)NCCN1CCOCC1,EC50,[8],> 53 µM (inactive)
same,IC50,[1],2.04 µM (active)
same,IC50,[2],2.26 µM (active)
CC(C)(C)c1ccc(C(=O)N2CCC2(C)C(=O)NS(=O)(=O)c2ccc(C#N)cc2)cc1 (stereo not given),IC50,[1],9.51 µM (active)
same,IC50,[2],8.79 µM (active)
OC1CCC(Nc2ccn3nc(-c4cccc(OCc5ccccc5)c4)cc3n2)CC1 (stereo not given),AC50,[9],37.1 µM (active)
same,AC50,[10],34.3 µM (active)
COc1ccc2c3c(n(C)c2c1)[C@@H](CO)N(C(=O)Nc1ccc(F)cc1)CC31CCN(S(=O)(=O)c2cccc(C)c2)CC1,AC50,[11],5.97 µM (active)
same,AC50,[12],64 µM (active)
O=C(C[C@@H]1C[C@@H]2c3cc(NC(=O)Cc4ccncc4)ccc3O[C@@H]2[C@H](CO)O1)NCc1ccc(-c2ccccc2)cc1,AC50,[11],13.3 µM (active)
same,AC50,[12],37.8 µM (active)
C[C@H]1CN([C@@H](C)CO)C(=O)Cc2cc(NC(=O)NC3CCCCC3)ccc2O[C@H]1CN(C)S(=O)(=O)c1ccc(Cl)cc1,AC50,[11],11.9 µM (active)
same,AC50,[12],13.5 µM (active)
CO/N=C/c1ccc(Sc2ccccc2N)c([N+](=O)[O-])c1,IC50,[13],9.01 µM (not active)
same,IC50,[4],> 50 µM (inactive)
